Results published in US4973675A, “Hybrid nitrosoureidoanthracyclines having antitumor activity” (University of Tennessee Research Center, priority 1989, dated 1990).
Entries after “also recorded” stand apart in the source; their conditions may differ. Where two headings read alike, the source gives them in different places.

Columns and labels:
[1] = system: plasmid PC15 supercoiled DNA; experiment: DNA unwinding assay (interference with DNA topoisomerase I-mediated unwinding; drug-DNA intercalation); format: biochemical
murine P388 leukemia = experiment: In vivo antitumor activity vs. murine P388 (P388/S) leukemia; parameters: species or system murine (B6D2F1 males); settings: for Long-term survivors / Median increase in lifespan / Median survival / Net mean percent weight change, day 7 / Range of deaths (dying animals) / Range of death (dying animals): ip
Excerpt: Initial studies utilized a multiple dose schedule, with drug administered once daily on days 1, 2, 3 and 4. […] The marked activity of AD 312 in this system has been confirmed in multiple separate experiments.
Additional studies were done with AD 312 vs. murine P388/S under more demanding conditions of assay.
^a Summary results of 4 separate experiments. B6D2F1 males; 1 ×

DNA topoisomerase II = experiment: Drug-stimulated topoisomerase II-mediated DNA cleavage assay (end-labeled PMC41 DNA); format: biochemical; settings: summary of biochemical studies
white blood cells = experiment: Hematotoxicity study in non-tumor-bearing animals, white blood cell count; format: in vivo, mice
Excerpt: FIG. 3 is a graphic representation of white blood cell counts in mice following a single dose of 2-chloroethylnitrosoureidodaunorubicin.
Clinically and in laboratory animals, anthracycline antibiotics and chloroethylnitrosourea alkylating agents currently used in medical oncology are known to be strongly myelosuppressive, with the effects of the alkylating agents on suppression of bone marrow activity being particularly profound and long-lasting.

[2] = Solubility in water or saline; format: physicochemical
Procedure: Accordingly, the compounds are formulated for administration by dissolving the compound in a pharmaceutically acceptable non-toxic carrier which contains a surfactant. The present inventors employ a formulation of 10% Cremaphor EL (a polyhydroxylated castor oil derivative) available from BASF Chemicals, 10% ethanol and 80% aqueous media (sterile water or saline solution). That quantity of the compound desired for establishing an effective dose is dissolved in a 1:1 mixture of Cremaphor EL and ethanol. Thereafter, sufficient aqueous medium is added with stirring to develop a final formulation containing 80% aqueous medium. This formulation is administered parenterally.

[3] = P388/S, 17.5 mg/kg/day, days 1-4
[4] = P388/S, single dose 40.5 mg/kg day 1
[5] = P388/S, single dose 40.5 mg/kg day 3

COc1cccc2c1C(=O)c1c(O)c3c(c(O)c1C2=O)C[C@@](O)(C(C)=O)C[C@@H]3O[C@H]1C[C@H](NC(=O)N(CCCl)N=O)[C@H](O)[C@H](C)O1 [AD 312, 2-chloroethylnitrosoureidodaunorubicin]
relative strength of drug-DNA intercalation (arbitrary scale) ([1]; 0 = no intercalation, 9 = very strong intercalation): 5
interference with topoisomerase I-mediated conversion of supercoiled DNA / intercalation ([1]; 4 concentrations, 125-fold range): the ability of these compounds to intercalate, a prerequisite for topoisomerase II inhibition, is clearly established
60-day survival (murine P388 leukemia; [3]): 100%
drug toxicity (murine P388 leukemia; [3]): without evidence of drug toxicity
autopsy of surviving animals (murine P388 leukemia; P388/S, gross examination at termination): no evidence of tumor or other abnormalities was observed on gross examination
60-day survival (murine P388 leukemia; [4]): 100%
antitumor effect (murine P388 leukemia; [4]): significant antitumor effect
dose toxicity (murine P388 leukemia; [4]): nontoxic
animals cured (murine P388 leukemia; [5]): 6 of 7
day of the lone death (murine P388 leukemia; [5]): 45 days
Long-term survivors (murine P388 leukemia; 0.5 mg/kg qd 1-4): 0/7
Median increase in lifespan (murine P388 leukemia; 0.5 mg/kg qd 1-4): +10%
Median survival (murine P388 leukemia; 0.5 mg/kg qd 1-4): 11 days
Net mean percent weight change, day 7 (murine P388 leukemia; 0.5 mg/kg qd 1-4): +13%
Range of deaths (dying animals) (murine P388 leukemia; 0.5 mg/kg qd 1-4): 10 to 11 days
Long-term survivors (murine P388 leukemia; 1.0 mg/kg qd 1-4): 0/7
Median increase in lifespan (murine P388 leukemia; 1.0 mg/kg qd 1-4): +20%
Median survival (murine P388 leukemia; 1.0 mg/kg qd 1-4): 12 days
Net mean percent weight change, day 7 (murine P388 leukemia; 1.0 mg/kg qd 1-4): +6%
Range of deaths (dying animals) (murine P388 leukemia; 1.0 mg/kg qd 1-4): 11 to 18 days
Long-term survivors (murine P388 leukemia; 2.0 mg/kg qd 1-4 (Table 4)): 0/7
Median increase in lifespan (murine P388 leukemia; 2.0 mg/kg qd 1-4 (Table 4)): +30%
Median survival (murine P388 leukemia; 2.0 mg/kg qd 1-4 (Table 4)): 13 days
Net mean percent weight change, day 7 (murine P388 leukemia; 2.0 mg/kg qd 1-4 (Table 4)): +7%
Range of deaths (dying animals) (murine P388 leukemia; 2.0 mg/kg qd 1-4 (Table 4)): 12 to 14 days
Long-term survivors (murine P388 leukemia; 2.7 mg/kg qd 1-4): 0/7
Median increase in lifespan (murine P388 leukemia; 2.7 mg/kg qd 1-4): +60%
Median survival (murine P388 leukemia; 2.7 mg/kg qd 1-4): 16 days
Net mean percent weight change, day 7 (murine P388 leukemia; 2.7 mg/kg qd 1-4): +4%
Range of deaths (dying animals) (murine P388 leukemia; 2.7 mg/kg qd 1-4): 16 to 17 days
Long-term survivors (murine P388 leukemia; 4.0 mg/kg qd 1-4 (Table 4)): 0/7
Median increase in lifespan (murine P388 leukemia; 4.0 mg/kg qd 1-4 (Table 4)): +75%
Median survival (murine P388 leukemia; 4.0 mg/kg qd 1-4 (Table 4)): 17.5 days
Net mean percent weight change, day 7 (murine P388 leukemia; 4.0 mg/kg qd 1-4 (Table 4)): +2%
Range of deaths (dying animals) (murine P388 leukemia; 4.0 mg/kg qd 1-4 (Table 4)): 15 to 20 days
Long-term survivors (murine P388 leukemia; 6.0 mg/kg qd 1-4): 0/7
Median increase in lifespan (murine P388 leukemia; 6.0 mg/kg qd 1-4): +110%
Median survival (murine P388 leukemia; 6.0 mg/kg qd 1-4): 21 days
Net mean percent weight change, day 7 (murine P388 leukemia; 6.0 mg/kg qd 1-4): +4%
Range of deaths (dying animals) (murine P388 leukemia; 6.0 mg/kg qd 1-4): 19 to 24 days
Median increase in lifespan (murine P388 leukemia; 9.0 mg/kg qd 1-4): +250%
Median survival (murine P388 leukemia; 9.0 mg/kg qd 1-4): 35 days
Net mean percent weight change, day 7 (murine P388 leukemia; 9.0 mg/kg qd 1-4): -2%
Range of deaths (dying animals) (murine P388 leukemia; 9.0 mg/kg qd 1-4): 24 to 35 days
Long-term survivors (murine P388 leukemia; 9.0 mg/kg qd 1-4, sacrifice day 43): 3/7
Median increase in lifespan (murine P388 leukemia; 10.0 mg/kg qd 1-4): > +500%
Net mean percent weight change, day 7 (murine P388 leukemia; 10.0 mg/kg qd 1-4): -1%
Range of deaths (dying animals) (murine P388 leukemia; 10.0 mg/kg qd 1-4): 38 days
Long-term survivors (murine P388 leukemia; 10.0 mg/kg qd 1-4, sacrifice day 60): 5/7
Median increase in lifespan (murine P388 leukemia; 11.0 mg/kg qd 1-4): > +500%
Net mean percent weight change, day 7 (murine P388 leukemia; 11.0 mg/kg qd 1-4): +1%
Range of deaths (dying animals) (murine P388 leukemia; 11.0 mg/kg qd 1-4): 28 days
Long-term survivors (murine P388 leukemia; 11.0 mg/kg qd 1-4, sacrifice day 60): 5/6
Long-term survivors (murine P388 leukemia; 12.0 mg/kg day 1 only): 0/7
Median increase in lifespan (murine P388 leukemia; 12.0 mg/kg day 1 only): +100%
Median survival (murine P388 leukemia; 12.0 mg/kg day 1 only): 20 days
Net mean percent weight change, day 7 (murine P388 leukemia; 12.0 mg/kg day 1 only): +6%
Range of death (dying animals) (murine P388 leukemia; 12.0 mg/kg day 1 only): 16 to 22 days
Median increase in lifespan (murine P388 leukemia; 12.5 mg/kg qd 1-4): > +540%
Range of deaths (dying animals) (murine P388 leukemia; 12.5 mg/kg qd 1-4): 35 to 40 days
Long-term survivors (murine P388 leukemia; 12.5 mg/kg qd 1-4, sacrifice day 64): 4/7
Median increase in lifespan (murine P388 leukemia; 15.0 mg/kg qd 1-4): > +540%
Net mean percent weight change, day 7 (murine P388 leukemia; 15.0 mg/kg qd 1-4): -1%
Range of deaths (dying animals) (murine P388 leukemia; 15.0 mg/kg qd 1-4): 32 to 39 days
Long-term survivors (murine P388 leukemia; 15.0 mg/kg qd 1-4, sacrifice day 64): 4/7
Median increase in lifespan (murine P388 leukemia; 17.5 mg/kg qd 1-4): > +540%
Net mean percent weight change, day 7 (murine P388 leukemia; 17.5 mg/kg qd 1-4): -1%
Long-term survivors (murine P388 leukemia; 17.5 mg/kg qd 1-4, sacrifice day 64): 6/6
Median increase in lifespan (murine P388 leukemia; 18.0 mg/kg day 1 only): +210%
Median survival (murine P388 leukemia; 18.0 mg/kg day 1 only): 31 days
Net mean percent weight change, day 7 (murine P388 leukemia; 18.0 mg/kg day 1 only): +7%
Range of death (dying animals) (murine P388 leukemia; 18.0 mg/kg day 1 only): 18 to 35 days
Long-term survivors (murine P388 leukemia; 18.0 mg/kg day 1 only, sacrifice day 60): 1/7
Median increase in lifespan (murine P388 leukemia; 27.0 mg/kg day 1 only): +230%
Median survival (murine P388 leukemia; 27.0 mg/kg day 1 only): 33 days
Net mean percent weight change, day 7 (murine P388 leukemia; 27.0 mg/kg day 1 only): +9%
Range of death (dying animals) (murine P388 leukemia; 27.0 mg/kg day 1 only): 23 to 33 days
Long-term survivors (murine P388 leukemia; 27.0 mg/kg day 1 only, sacrifice day 60): 3/7
Long-term survivors (murine P388 leukemia; 27.0 mg/kg day 3 only): 0/7
Median increase in lifespan (murine P388 leukemia; 27.0 mg/kg day 3 only): +210%
Median survival (murine P388 leukemia; 27.0 mg/kg day 3 only): 31 days
Net mean percent weight change, day 7 (murine P388 leukemia; 27.0 mg/kg day 3 only): +17%
Range of death (dying animals) (murine P388 leukemia; 27.0 mg/kg day 3 only): 12 to 49 days
Median increase in lifespan (murine P388 leukemia; 40.5 mg/kg day 1 only): > +500%
Net mean percent weight change, day 7 (murine P388 leukemia; 40.5 mg/kg day 1 only): -3%
Long-term survivors (murine P388 leukemia; 40.5 mg/kg day 1 only, sacrifice day 60): 7/7
Median increase in lifespan (murine P388 leukemia; 40.5 mg/kg day 3 only): > +500%
Net mean percent weight change, day 7 (murine P388 leukemia; 40.5 mg/kg day 3 only): -4%
Range of death (dying animals) (murine P388 leukemia; 40.5 mg/kg day 3 only): 45 days
Long-term survivors (murine P388 leukemia; 40.5 mg/kg day 3 only, sacrifice day 60): 6/7
toxicity / myelosuppression at curative doses (murine P388 leukemia; tumor-bearing animals): No such effect appears to be present in tumor-bearing animals; also recorded: lack of toxicity at the curative dose levels
DNA topoisomerase II-inhibitory and alkylating activity (DNA topoisomerase II): clearly establish the DNA topoisomerase II-inhibitory activity and alkylating activity
acute toxicity (white blood cells; dose 60.75 mg/kg): still not at an acute toxic level
recovery of white blood cell count (white blood cells; dose 60.75 mg/kg): rapid recovery again being achieved
reduction in white blood cell count (white blood cells; dose 60.75 mg/kg, day 4): about 67%
day of white blood cell nadir (white blood cells; single dose 40.5 mg/kg): 4 days
full recovery of white blood cell count (white blood cells; single dose 40.5 mg/kg): ≤ 10 days
lowering of white blood cell count (white blood cells; single dose 40.5 mg/kg): only a modest lowering of the white blood cell count
white blood cell count nadir (white blood cells; single dose 40.5 mg/kg, day 4, median 9×10^6 before drug): 6×10^6 cells/ml
solubility ([2]; water or saline solution): essentially insoluble in water or saline solution
solubility ([2]; water, of the order of, read-out: solubility in water): < 25 µg/mL
